Patent US8877718B2, “Antiinfective and antitumoral compounds isolated from tropical lianas” (Julius-Maximilians-Universität Würzburg, priority 2008, dated 2014)

How the values were obtained:
[1] = system: Leishmania donovani (MHOM-ET-67/L82 strain) amastigote forms; assay: Antiinfective effect against axenic amastigotes of Leishmania donovani (Alamar Blue fluorescence); type: cell-based; conditions: for inhibition at 0.8 µg/mL: c = 0.8 μg/ml, read-out: Inhibition of cell growth (%) at c = 0.8 μg/ml; for inhibition at 4.8 µg/mL: c = 4.8 μg/ml, read-out: Inhibition of cell growth (%) at c = 4.8 μg/ml; for activity against Leishmania donovani (in words): summary of Table 6
Method: Amastigote forms of Leishmania donovani (MHOM-ET-67/L82 strain) were grown in axenic culture at 37° C. and pH 5.4 in SM medium (I. Cunningham, J. Protozool. 1977, 24, 325-329) supplemented with 10% fetal bovine serum. For the assay, amastigote forms were seeded into a microtiter plate containing two concentrations of each substance to be tested. After 72 h the dye Alamar Blue (Resazurin) was added to each culture, and the plate was incubated for two more hours. Fluorescence at 536/588 nm was measured using a microtiter plate fluorometer, and the fluorescence signal of each culture treated with a substance was compared to the fluorescence signal of untreated control cultures. The antileishmanial drug miltefosine served as a positive control.

[2] = system: DOHH-2 (aggressive B cell lymphoma) cell line; assay: Cell viability, annexin V-FITC/PI flow cytometry, DOHH-2; type: cell-based; conditions: human tumor cell line DOHH-1-2 (aggressive B cell lymphoma), 72 h incubation
Source text: (§1) Both cell lines of aggressive B cell lymphoma (DOHH-2, SU-DHL-4) and the multiple myeloma cell line RPMI8226 were obtained from the German Collection of Microorganisms and Cell Cultures (DSMZ) (ACC 47, ACC 495, and ACC 402, Braunschweig, Germany). The cultivation of the multiple myeloma cell line INA-6 had been previously described (R. Burger, A. Guenther, F. Bakker, M. Schmalzing, S. Bernand, W. Baum, B. Duerr, G. M. Hocke, H. Steininger, E. Gebhart, M. Gramatzki, Hematol. J. 2001, 2, 42-53). Normal mononuclear blood cells from the peripheral blood of two healthy donors were isolated by Ficoll-Hypaque density gradient centrifugation. To assess the percentage of apoptotic and viable cell fractions, a human annexin V-FITC/PI staining kit (Bender MedSystems, Vienna, Austria) was used. Cells (inoculation: 50000 cells mL^−1; incubation: 72 h) were washed in PBS, incubated for 10 min in 100 ml binding buffer (10 mM HEPES/NaOH, pH 7.4, 140 mM NaCl, 2.5 mM CaCl2) containing 2.5 ml annexin V-FITC mix and 1 mg/ml propidium iodide (PI), subsequently diluted with 300 ml binding buffer and analyzed by flow cytometry (FACSCalibur/CELLQuest; Becton Dickinson, Heidelberg, Germany). Early apoptosis is characterized by a positive annexin V-FITC staining. Cells in a late apoptotic stage lose their membrane integrity and additionally incorporate PI. […]

[3] = system: SU-DHL-4 (aggressive B cell lymphoma) cell line; assay: Cell viability, annexin V-FITC/PI flow cytometry, SU-DHL-4; type: cell-based; conditions: human tumor cell line SU-DH-4 L (aggressive B cell lymphoma), 72 h incubation
Source text: as §1

[4] = system: INA-6 (multiple myeloma) cell line; assay: Cell viability, annexin V-FITC/PI flow cytometry, INA-6; type: cell-based; conditions: human tumor cell line INA-6 (multiple myeloma); 72 h incubation
Source text: as §1

[5] = system: RPMI8226 (multiple myeloma) cell line; assay: Cell viability, annexin V-FITC/PI flow cytometry, RPMI8226; type: cell-based; conditions: RPMI-8226; human tumor cell line RPMI8226 (multiple myeloma); 72 h incubation
Source text: as §1

[6] = system: normal peripheral mononuclear blood cells; assay: Cell viability, annexin V-FITC/PI flow cytometry, normal blood cells; type: cell-based, human; conditions: FIG. 9; for toxicity against normal peripheral mononuclear blood cells: cells of two healthy donors; for 50% response (EC50) in primary mononuclear blood cells: within the preferred therapeutic concentration range
Source text: Both cell lines of aggressive B cell lymphoma (DOHH-2, SU-DHL-4) and the multiple myeloma cell line RPMI8226 were obtained from the German Collection of Microorganisms and Cell Cultures (DSMZ) (ACC 47, ACC 495, and ACC 402, Braunschweig, Germany). The cultivation of the multiple myeloma cell line INA-6 had been previously described (R. Burger, A. Guenther, F. Bakker, M. Schmalzing, S. Bernand, W. Baum, B. Duerr, G. M. Hocke, H. Steininger, E. Gebhart, M. Gramatzki, Hematol. J. 2001, 2, 42-53). Normal mononuclear blood cells from the peripheral blood of two healthy donors were isolated by Ficoll-Hypaque density gradient centrifugation. To assess the percentage of apoptotic and viable cell fractions, a human annexin V-FITC/PI staining kit (Bender MedSystems, Vienna, Austria) was used. Cells (inoculation: 50000 cells mL^−1; incubation: 72 h) were washed in PBS, incubated for 10 min in 100 ml binding buffer (10 mM HEPES/NaOH, pH 7.4, 140 mM NaCl, 2.5 mM CaCl2) containing 2.5 ml annexin V-FITC mix and 1 mg/ml propidium iodide (PI), subsequently diluted with 300 ml binding buffer and analyzed by flow cytometry (FACSCalibur/CELLQuest; Becton Dickinson, Heidelberg, Germany). Early apoptosis is characterized by a positive annexin V-FITC staining. Cells in a late apoptotic stage lose their membrane integrity and additionally incorporate PI. Viable cells are negative for both, annexin V-FITC and PI. The optical density of the controls was equaled to 100%.

[7] = Leishmania donovani, 72 h, axenic amastigotes

Structure (SMILES) | inhibition at 0.8 µg/mL [1, 7] [%] | inhibition at 4.8 µg/mL [1, 7] [%] | inhibition at 0.22 µg/mL ([1]; Leishmania donovani, c = 0.22 μg/ml (positive control), 72 h, axenic amastigotes, read-out: Inhibition of cell growth (%)) [%] | activity against Leishmania donovani (in words) [1] | EC50 [2] [µM] | EC50 [3] [µM] | EC50 [4] [µM] | EC50 [5] [µM] | toxicity against normal peripheral mononuclear blood cells [6] | 50% response (EC50) in primary mononuclear blood cells [6] | melting point [°C]
COc1cc(O)c2c(c1OC)C(=O)C(O)=C(C)C2=O [Ancistroquinone D (1c), 3,8-dihydroxy-5,6-dimethoxy-2-methyl-1,4-naphthoquinone] | 11.4 | 31.7 | – | – | – | – | – | – | – | – | –
CCCCCCCCCCCCCCCCOP(=O)([O-])OCC[N+](C)(C)C [Miltefosine, miltefosine, reference compound] | – | – | 53 | – | – | – | – | – | – | – | –
COc1c2c(cc3c1C(=O)C(O)=C(C)C3=O)OCO2 [Ancistroquinone F (1e), 3-hydroxy-5-methoxy-2-methyl-6,7-methylenedioxy-1,4-naphthoquinone] | 0.3 | 28.6 | – | – | – | – | – | – | – | – | –
CC1=C(O)C(=O)c2c(O)c3c(c(O)c2C1=O)OCO3 [Ancistroquinone E (1d), 3,5,8-trihydroxy-2-methyl-6,7-methylenedioxy-1,4-naphthoquinone] | 19.6 | 30.5 | – | – | – | – | – | – | – | – | –
CC1=C(O)C(=O)c2c(ccc(O)c2O)C1=O [Dioncoquinone B (1b), 3,5,6-trihydroxy-2-methyl-1,4-naphthoquinone] | 79.2 | 87.6 | – | excellent | 9.4 | 7.6 | 11 | 18 | non-toxic | neither for Dioncoquinone A (1a) or for Dioncoquinone B (1b) a 50% response was achieved | 216 to 217
CC1=C(O)C(=O)c2c(ccc(O[C@@H]3OC(CO)[C@@H](O)[C@H](O)[C@H]3O)c2O)C1=O (stereo partly drawn) [Dioncoquinone A (1a), 3,5,6-trihydroxy-2-methyl-1,4-naphthoquinone-6-O-β-glucoside] | 49.6 | 80.3 | – | excellent | 37 | 32 | 29 | 58 | non-toxic | neither for Dioncoquinone A (1a) or for Dioncoquinone B (1b) a 50% response was achieved | 189
COc1ccc2c(c1OC)C(=O)C(O)=C(C)C2=O [Ancistroquinone C (1f), 3-Hydroxy-5,6-dimethoxy-2-methyl-1,4-naphthoquinone] | – | – | – | – | – | – | – | – | – | – | 218
